Laboratory results from US20230391817A1, “5ALPHA-HYDROXY-6BETA-[2-(1-H-IMIDAZOL-4-YL)-ETHYLAMINO]-CHOLESTAN-3BETA-OL ANALOGUES AND PHARMACEUTICAL COMPOSITIONS COMPRISING SAME FOR USE IN THE TREATMENT OF CANCER” (priority 2020, published 2023).

What was measured:
[1] = system: BT-474 human mammary tumor cells; test: Cell viability of BT-474 cells, MTT; format: cell-based; settings: for activity compared with DX101: BT-474, Tables 2a, 2b and 2c (MTT, LDH, Trypan Blue); for Mean LogIC50 (±SEM) / IC50: BT-474, MTT, 48 h; for Mean LogIC50 (±SEM): log of IC50 in μM; for IC50: Homo sapiens
Procedure: (§1) The cell viability is measured by three different methods. For the first method, MTT labeling is performed at 48 hours. This test is based on the use of the tetrazolium salt MTT (3-(4,5-dimethylthiazol-2-yl)-2,5-diphenyltetrazolium bromide). Tetrazolium is reduced by mitochondrial succinate dehydrogenase in active live cells to formazan, a purple colored precipitate. The amount of precipitate formed is proportional to the amount of live cells but also to the metabolic activity of each cell. Thus, a simple determination of the optical density at 550 nm by spectroscopy makes it possible to determine the relative amount of live and metabolically active cells. After 48 hours, the medium is aspirated, and the cells are incubated with MTT (0.5 mg/ml in culture medium) for about 3 hours. The MTT solution is aspirated and the purple crystals are dissolved in dimethyl sulfoxide (DMSO). The OD (optical density) is measured at 550 nm. The percentage of viability is then determined in each well against the CTL and the IC50 (concentration at which 50% of cells remain alive) is determined for each molecule with the Prism software using a nonlinear regression curve (log(inhibitor) vs. Response).
(§2) Cell viability tests were also performed on BT-474 human mammary tumor cells (characterized as triple positive HER2+, ER+, PR+). The BT-474 cells were in a cell culture medium identical to the previous example and seeded in 24-well plates at 70 000 cells per well for cell viability determination using trypan blue, or in 96-well plates at 13 000 cells per well for cell viability determination using the MTT or LDH assay. After 96 hours (h) of culture under normal conditions, i.e. in an incubator at 37° C. with […], BT-474 cells were treated for 48 h with DX101, DX103, DX105, DX111, DX123 and DX127 at 100 nM, 1 μM, 2.5 μM and 10 μM. A control is also performed using the protocol described previously without treatment with DX101, DX103, DX105, DX111, DX123 and DX127.
(§3) After a 10-minute trypsin digestion at 37° C., the cell survival was also quantified by means of a trypan blue test with automatic counting using the Biorad TC20 machine (TC20™ Automated Cell Counter). The trypan blue test is based on the integrity of cell membranes, which is disrupted in the dead cells. Trypan blue stains dead cells blue. The Biorad TC20 cell counter counts the proportion of blue and non-blue cells, and reports the percentage of cells. The percentage of viability is then determined in each well relative to the untreated cells and the IC50 is determined as explained in the preceding example. Also, the percentage viability of the BT-474 cells was determined using the MTT and LDH assay, performed as described in the preceding example.

[2] = Oral pharmacokinetic study in rat, LC/MS assay in plasma (Examples 21-24); format: in vivo; settings: in vivo, po, 50 mg/kg
Procedure: The following study is an LC/MS assay in plasma of the various molecules over 3 days (11 measurement points in the end). The graphs are always presented in comparison with DX101 which is the reference.
Plasma sampling at 0 (without injection), 5, 10, 15, 30 min, 1 h, 4 h, 8 h, 24 h, 48 h, 72 h (11 points)

[3] = system: murine 4T1 mammary tumor cells; test: Cell viability of 4T1 cells, LDH; format: cell-based; settings: Mus musculus, 4T1, LDH, 48 h
Procedure: (§4) Cell viability tests were performed on murine 4T1 mammary tumor cells characterized as triple negative (HER2-, ER-, PR-).
(§5) For this experiment, a cell culture medium was prepared. The culture medium consisted of Dulbecco's Modified Eagle Medium (DMEM, sold by Westburg as LO BE12-604F), comprising 4.5 g/L glucose with L-glutamine, to which 10% fetal calf serum (FCS) and 50 U/ml penicillin/streptomycin are added. The 4T1 cells were introduced into this culture medium.
(§6) 96-well plates were seeded with 2000 4T1 cells per well. After 72 hours (h) of culture under normal condition, i.e. in an incubator at 37° C. at […], the 4T1 cells were treated for 48 h with DX101, DX103, DX111, DX123, DX125, DX127 and DX129 at 100 nM, 1 μM, 2.5 μM and 10 μM. A control condition (CTL) is also performed in parallel using the previously described protocol without treatment with the molecules DX101, DX103, DX111, DX123, DX125, DX127 or DX129.
For the second method, the percentage of viability is determined by assaying the activity of the enzyme LDH (lactate dehydrogenase) in cell supernatants using the non radioactive cytotoxicity assay kit (Promega). LDH is an enzyme released in the supernatant of dead cells. The higher the LDH activity in the supernatant, the greater the cell death. In this enzyme assay, the LDH released converts a violet tetrazolium salt to a red colored formazan, absorbing at 490 nm. The intensity of the red color is proportional to the number of dead cells. After 48 h of treatment, the supernatants are transferred to a new 96-well plate and incubated for 30 minutes in the presence of substrate mix at room temperature. The reaction is stopped with stop solution reagent and the absorbance is determined at 490 nm. The percentage of cell death is determined here using a 100% maximum LDH activity control (made from untreated cells incubated in the presence of lysis solution for 45 minutes at 37° C. just prior to addition of the substrate mix), and the cell viability in each well is then deduced from this percentage. The IC50 is then determined as explained in the preceding paragraph.

[4] = system: murine 4T1 mammary tumor cells; test: Cell viability of 4T1 cells, CellTox Green Cytotoxicity Assay; format: cell-based; settings: Mus musculus, 4T1, Green Cytotoxicity Assay, 48 h
Procedure: as §4, §5, §6
For the third method, the percentage viability is determined using the CellTox Green Cytotoxicity Assay kit (Promega). This assay measures cell death via a change in membrane integrity. […] Consequently, the higher the fluorescence in the wells, the greater the cell death. […] The percentage of cell death is determined using the 100% cell death control (made from untreated cells incubated in the presence of the lysis solution for 30 minutes at 37° C. prior to the addition of Celltox green reagent), and the cell viability in each well is then deduced from this percentage. The IC50 is then determined as explained previously.

[5] = system: murine 4T1 mammary tumor cells; test: Cell viability of 4T1 cells, MTT; format: cell-based; settings: for cytotoxic activity compared with DX101: 4T1, Tables 1a, 1b and 1c (MTT, LDH, Green Cytotoxicity Assay); for IC50: Mus musculus, 4T1, MTT, 48 h
Procedure: as §4, §5, §6, §1

[6] = system: BT-474 human mammary tumor cells; test: Cell viability of BT-474 cells, trypan blue; format: cell-based; settings: BT-474, Trypan Blue, 48 h; for Mean LogIC50 (±SEM): log of IC50 in μM; for IC50: Homo sapiens
Procedure: as §2, §3

[7] = target: T1, Cholesterol Epoxide Hydrolase (ChEH) (Homo sapiens, UniProt Q15125+Q9UBM7); test: Cholesterol Epoxide Hydrolase (ChEH) activity in MCF-7 cells, [14C]5,6α-EC metabolism by TLC; format: cell-based; settings: 1 μM, 24 h, [14C]5,6α-EC 0.6 μM
T1 construct: endogenous in cells; host or cells: MCF-7
T1 sequence (Q15125 whole entry): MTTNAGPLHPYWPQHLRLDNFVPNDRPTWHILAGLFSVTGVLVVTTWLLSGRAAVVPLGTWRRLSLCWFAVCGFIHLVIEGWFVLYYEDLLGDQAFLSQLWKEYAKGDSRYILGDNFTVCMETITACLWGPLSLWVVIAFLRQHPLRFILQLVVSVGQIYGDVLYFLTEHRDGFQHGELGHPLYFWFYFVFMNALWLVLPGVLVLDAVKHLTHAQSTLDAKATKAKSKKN
T1 sequence (Q9UBM7 whole entry): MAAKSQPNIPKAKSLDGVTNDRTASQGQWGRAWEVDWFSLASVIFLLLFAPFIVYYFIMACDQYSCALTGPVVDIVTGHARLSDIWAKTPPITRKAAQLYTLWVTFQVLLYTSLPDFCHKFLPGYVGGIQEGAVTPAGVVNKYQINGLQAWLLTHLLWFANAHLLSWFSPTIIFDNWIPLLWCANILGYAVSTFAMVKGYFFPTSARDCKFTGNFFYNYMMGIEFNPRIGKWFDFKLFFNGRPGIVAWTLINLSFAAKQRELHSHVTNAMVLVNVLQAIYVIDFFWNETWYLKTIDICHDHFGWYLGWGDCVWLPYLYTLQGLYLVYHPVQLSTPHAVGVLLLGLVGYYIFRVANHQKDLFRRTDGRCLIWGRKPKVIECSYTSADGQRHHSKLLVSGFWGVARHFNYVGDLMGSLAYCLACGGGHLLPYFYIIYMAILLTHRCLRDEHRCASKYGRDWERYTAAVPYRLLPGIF
Source text: The compounds 5,6α-epoxycholesterol (5,6α-EC) and 5,6p-epoxycholesterol (5,6p-EC) are oxysterols involved in the anticancer pharmacology of tamoxifen, a widely used antitumor drug. Both are metabolized to cholestane-3β,5α,6β-triol (CT) by the enzyme cholesterol-5,6-epoxide hydrolase (ChEH), and CT is metabolized by the enzyme HSD11B2 (11β-hydroxysteroid dehydrogenase 2) to 6-oxocholestane-3β,5α-diol (OCDO), a tumor-promoting oncosterone.
MCF-7 cells are in a cell culture medium identical to that of Example 5 and are seeded in 6-well plates at 150 000 cells per well with three wells per treatment condition. […] Tamoxifen is used as a positive control for 3α-fluoro-5α-hydroxy-6β-[2-(1H-imidazol-4-yl)ethylamino]cholestane and 5α-hydroxy-6β-[2-(1H-imidazol-4-yl)ethylamino]cholestan-3β-ol (1 μM for all molecules).
After 24 hours of treatment, the media are collected and lipid extracts are prepared from the cell pellets by extraction with 100 μL of chloroform, 400 μL of methanol, and 300 μL of water.
The lipid extracts are analyzed by thin layer chromatography (TLC) using ethyl acetate (EtOAc) as eluent. The analysis is performed with a plate reader and then by autoradiography.

[8] = log of IC50 in μM, read-out: Mean LogIC50 (±SEM) (converted)

SMILES | activity compared with DX101 [1] | Area under the curve [2] | Max concentration [2] [nM] | Time for Cmax [2] [min] | bioavailability / extent of absorption compared with DX101 [2] | IC50 [3, 8] [µM] | IC50 ([3]; read-out: IC50) [µM] | IC50 [4, 8] [µM] | IC50 ([4]; read-out: IC50) [µM] | cytotoxic activity compared with DX101 [5] | IC50 [5, 8] [µM] | IC50 ([5]; read-out: IC50) [µM] | Mean LogIC50 (±SEM) [1] | IC50 [1] [µM] | Mean LogIC50 (±SEM) [6] | IC50 [6] [µM] | speed of absorption compared with DX101 [2] | maximum concentration compared with DX101 [2] | inhibition of ChEH activity [7]
CC(C)CCC[C@@H](C)[C@H]1CC[C@H]2[C@@H]3C[C@@H](NCCc4c[nH]cn4)[C@@]4(O)C[C@@H](N=[N+]=[N-])CC[C@]4(C)[C@H]3CC[C@]12C [DX123, 3β-azido-5α-hydroxy-6β-[2-(1H-imidazol-4-yl)ethylamino]cholestane] | tends to be superior | 6711 | 721 | 4 | twofold higher bioavailability | 1.45 | 1.45 | 2.09 | > 10 | tendency to be higher | 5.89 | 5.94 | – | – | – | – | – | – | –
CC(=O)N[C@H]1CC[C@]2(C)[C@H]3CC[C@]4(C)[C@@H]([C@H](C)CCCC(C)C)CC[C@H]4[C@@H]3C[C@@H](NCCc3c[nH]cn3)[C@@]2(O)C1 [DX127, 3β-acetamido-5α-hydroxy-6β-[2-(1H-imidazol-4-yl)ethylamino]cholestane] | similar | – | – | – | – | 7.08 | 7.09 | 11 | 10.9 | lower | 11.7 | 11.7 | – | – | – | – | – | – | –
CO[C@H]1CC[C@]2(C)[C@H]3CC[C@]4(C)[C@@H]([C@H](C)CCCC(C)C)CC[C@H]4[C@@H]3C[C@@H](NCCc3c[nH]cn3)[C@@]2(O)C1 [DX103, 3β-methoxy-5α-hydroxy-6β-[2-(1H-imidazol-4-yl)ethylamino]cholestane] | similar | 105351 | 135 | 240 | slightly lower bioavailability | 4.37 | 4.4 | 2.63 | 2.63 | – | 3.16 | 3.16 | 0.85 ± 0.05 | 7.08 | 0.42 ± 0.25 | 2.62 | faster absorption | – | –
CCO[C@H]1CC[C@]2(C)[C@H]3CC[C@]4(C)[C@@H]([C@H](C)CCCC(C)C)CC[C@H]4[C@@H]3C[C@@H](NCCc3c[nH]cn3)[C@@]2(O)C1 [DX105, 3β-ethoxy-5α-hydroxy-6β-[2-(1H-imidazol-4-yl)ethylamino]cholestane] | similar | 145590 | 197 | 240 | equivalent to (or even slightly higher than) | – | – | – | – | – | – | – | 0.86 ± 0.04 | 4.08 | 0.55 ± 0.14 | 3.57 | much faster absorption | much higher maximum concentration | –
CCCCCCCCO[C@H]1CC[C@]2(C)[C@H]3CC[C@]4(C)[C@@H]([C@H](C)CCCC(C)C)CC[C@H]4[C@@H]3C[C@@H](NCCc3c[nH]cn3)[C@@]2(O)C1 [DX115, 3β-octanoxy-5α-hydroxy-6β-[2-(1H-imidazol-4-yl)ethylamino]cholestane] | – | – | – | – | – | 17.4 | > 10 | 25.1 | > 10 | – | 37.2 | > 10 | – | – | – | – | – | – | –
CC/C(=C(\c1ccccc1)c1ccc(OCCN(C)C)cc1)c1ccccc1 [tamoxifen, reference compound] | – | – | – | – | – | – | – | – | – | – | – | – | – | – | – | – | – | – | total inhibition
CC(C)CCC[C@@H](C)[C@H]1CC[C@H]2[C@@H]3C[C@@H](NCCc4c[nH]cn4)[C@@]4(O)C[C@@H](S(C)(=O)=O)CC[C@]4(C)[C@H]3CC[C@]12C [DX129, 3β-methylsulfonyl-5α-hydroxy-6β-[2-(1H-imidazol-4-yl)ethylamino]cholestane] | – | – | – | – | – | 3.89 | 3.87 | 16.2 | 16.2 | lower | 15.1 | 15.1 | – | – | – | – | – | – | –
CC(C)CCC[C@@H](C)[C@H]1CC[C@H]2[C@@H]3C[C@@H](NCCc4c[nH]cn4)[C@@]4(O)C[C@@H](N)CC[C@]4(C)[C@H]3CC[C@]12C [DX125, 3β-amino-5α-hydroxy-6β-[2-(1H-imidazol-4-yl)ethylamino]cholestane] | – | – | – | – | – | 36.3 | > 10 | 22.4 | > 10 | lower | 145 | > 10 | – | – | – | – | – | – | –
